Data as given in ChEMBL document CHEMBL1201862, “PubChem BioAssay data set” (2004).
Where a name gives a salt, the structure may show the parent alone.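 Exposure lasted 48 hours, with cells grown in 96-well plates and compounds tested at five concentrations. Here, GI50 denotes the concentration required for 50% inhibition of growth.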 The source made the active and inactive calls. Rule as the data show it: active = GI50 up to about 1.1 µM and inactive = higher.

Legend:
Assay in all cases: NCI anticancer screen, dose series, 48 h
HCT-15 = system: HCT-15
U-251 = system: U-251
786-0 = system: 786-0
NCI-H460 = system: NCI-H460
SF-268 = system: SF-268
DU-145 = system: DU-145
Hs-578T = system: Hs-578T
BT-549 = system: BT-549
SNB-75 = system: SNB-75
UO-31 = system: UO-31
A549 = system: A549
MCF7 = system: MCF7
MOLT-4 = system: MOLT-4
SK-MEL-5 = system: SK-MEL-5
HCT-116 = system: HCT-116
RXF 393 = system: RXF 393
EKVX = system: EKVX
HCC 2998 = system: HCC 2998
ACHN = system: ACHN
HL-60 = system: HL-60

Structure (SMILES) | GI50 (HCT-15) | GI50 (U-251) | GI50 (786-0) | GI50 (NCI-H460) | GI50 (SF-268) | GI50 (DU-145) | GI50 (Hs-578T) | GI50 (BT-549) | GI50 (SNB-75) | GI50 (UO-31) | GI50 (A549) | GI50 (MCF7) | GI50 (MOLT-4) | GI50 (SK-MEL-5) | GI50 (HCT-116) | GI50 (RXF 393) | GI50 (EKVX) | GI50 (HCC 2998) | GI50 (ACHN) | GI50 (HL-60)
CC(C)=CCc1cc(C2COc3cc4c(c(O)c3C2=O)C=CC(C)(C)O4)c(O)cc1O (stereo not given) | 13.7 µM | 16 µM (inactive) | 19 µM (inactive) | 14.3 µM (inactive) | 13.2 µM (inactive) | 14.5 µM (inactive) | 17.8 µM (inactive) | 16.3 µM (inactive) | 19.1 µM (inactive) | 12.8 µM (inactive) | 12.7 µM (inactive) | 11.8 µM (inactive) | 5.61 µM (inactive) | 11.3 µM (inactive) | 17.3 µM (inactive) | 6.59 µM (inactive) | 12.7 µM (inactive) | 18.7 µM (inactive) | 16.7 µM (inactive) | 8.63 µM (inactive)
C=CCNC1=C2C[C@@H](C)C[C@@H](OC)[C@H](OC(=O)CCN(C)C)[C@H](C)/C=C(\C)[C@@H](OC(N)=O)[C@H](OC)/C=C\C=C(/C)C(=O)NC(=CC1=O)C2=O | 0.535 µM | 0.203 µM (active) | 1.43 µM (inactive) | 0.0627 µM (active) | 1.35 µM (inactive) | 0.993 µM (active) | 12.1 µM (inactive) | 12.9 µM (inactive) | 0.1 µM (active) | 0.822 µM (active) | 0.0559 µM (active) | 0.0295 µM (active) | 1.53 µM (inactive) | 0.0508 µM (active) | 0.134 µM (active) | 0.182 µM (active) | 1.35 µM (inactive) | 0.0641 µM (active) | 0.875 µM (active) | 0.362 µM (active)
Cc1ccc(-c2n[nH]c(=O)[nH]2)cc1[N+](=O)[O-] | > 100 µM | > 100 µM (inactive) | > 100 µM (inactive) | > 100 µM (inactive) | > 100 µM (inactive) | > 100 µM (inactive) | 3.01 µM (inactive) | 36.8 µM (inactive) | 61 µM (inactive) | 27.5 µM (inactive) | > 100 µM (inactive) | > 100 µM (inactive) | > 100 µM (inactive) | > 100 µM (inactive) | > 100 µM (inactive) | > 100 µM (inactive) | 0.643 µM (active) | 63.4 µM (inactive) | > 100 µM (inactive) | > 100 µM (inactive)
COc1c(OC(C)=O)c(OC(C)=O)cc2c1-c1ccc(SC)c(=O)cc1C(NC(C)=O)CC2 (stereo not given) | 9.77 µM | 0.601 µM (active) | 1.69 µM (inactive) | 2.9 µM (inactive) | 0.472 µM (active) | 0.583 µM (active) | 0.22 µM (active) | 0.201 µM (active) | 0.299 µM (active) | 71.9 µM (inactive) | 4.19 µM (inactive) | 0.124 µM (active) | 0.968 µM (active) | 0.184 µM (active) | 0.685 µM (active) | 3.66 µM (inactive) | 36.1 µM (inactive) | 0.454 µM (active) | 11.6 µM (inactive) | 0.208 µM (active)
CN1CCN(CCCNN)CC1 | > 100 µM | > 100 µM (inactive) | > 100 µM (inactive) | > 100 µM (inactive) | > 100 µM (inactive) | > 100 µM (inactive) | > 100 µM (inactive) | > 100 µM (inactive) | > 100 µM (inactive) | > 100 µM (inactive) | > 100 µM (inactive) | > 100 µM (inactive) | 0.305 µM (active) | > 100 µM (inactive) | > 100 µM (inactive) | > 100 µM (inactive) | > 100 µM (inactive) | > 100 µM (inactive) | > 100 µM (inactive) | 7.33 µM (inactive)
CC(C)C[C@H]1C(=O)N2CCC[C@H]2[C@]2(O)O[C@](NC(=O)[C@@H]3C=C4c5cccc6[nH]c(Br)c(c56)C[C@H]4N(C)C3)(C(C)C)C(=O)N12 [BROMOCRIPTINE MESYLATE] | 8.67 µM | 35.8 µM (inactive) | 53.2 µM (inactive) | 10.8 µM (inactive) | 59.6 µM (inactive) | > 100 µM (inactive) | 25.2 µM (inactive) | > 100 µM (inactive) | 40.9 µM (inactive) | 4.61 µM (inactive) | 6.98 µM (inactive) | 8.87 µM (inactive) | 4.34 µM (inactive) | 21.7 µM (inactive) | 5.33 µM (inactive) | 24.7 µM (inactive) | 4.74 µM (inactive) | 32.8 µM (inactive) | 13 µM (inactive) | 2.51 µM (inactive)
